Experiments:
cats = experiment: Cat gel panel feeding test, monadic exposure (palatability, gel intake); type: in vivo
Procedure: A cat gel panel was used to compare the palatability of a range of concentrations of oleic acid in a monadic exposure. The dose response tested 8 concentrations of oleic acid ranging from 0.001% oleic acid to 1% oleic acid. All products (including the blank, 0% oleic acid) contained 25 mM L-histidine as an ingestive/positive tastant to increase the baseline gel intake, enabling the identification of a potential negative impact of the oleic acid concentration. A cat gel panel was used to compare the palatability of a range of concentrations of linoleic acid in a monadic exposure. The dose response tested 8 concentrations of linoleic acid ranging from 0.001% linoleic acid to 1% linoleic acid. All products (including the blank, 0% linoleic acid) contained 25 mM L-histidine as an ingestive/positive tastant to increase the baseline gel intake, enabling the identification of a potential negative impact of the linoleic acid concentration. A cat gel panel was used to compare the palatability of a range of concentrations of lauric acid in a monadic exposure. The dose response tested 5 concentrations of lauric acid ranging from 0.05% lauric acid to 1% lauric acid. All products (including the blank, 0% lauric acid) contained 25 mM L-histidine as an ingestive/positive tastant to increase the baseline gel intake, enabling the identification of a potential negative impact of the lauric acid concentration. A cat gel panel was used to compare the palatability of a range of concentrations of palmitic acid in a monadic exposure. The dose response tested 5 concentrations of palmitic acid ranging from 0.05% palmitic acid to 1% palmitic acid. All products (including the blank, 0% palmitic acid) contained 25 mM L-histidine as an ingestive/positive tastant to increase the baseline gel intake, enabling the identification of a potential negative impact of the palmitic acid concentration.

dogs = experiment: Dog panel feeding test, monadic exposure (palatability, gel intake), two single-breed panels; type: in vivo; settings: 100 mM L-histidine
Procedure: Two different dog panels were used to compare the palatability of concentrations of linoleic acid. Each panel was made up of a single breed of dog; each panel being a different breed. The canine panels were used to compare the palatability of a range of concentrations of linoleic acid in a monadic exposure. The dose response tested 3 concentrations of linoleic acid ranging from 0.01% linoleic acid to 1% linoleic acid. All products (including the blank, 0% linoleic acid) contained 100 mM L-histidine as an ingestive/positive tastant to increase the baseline gel intake, enabling the identification of a potential negative impact of the linoleic acid concentration. Two different dog panels were used to compare the palatability of concentrations of oleic acid. Each panel was made up of a single breed of dog; each panel being a different breed. The canine panels were used to compare the palatability of a range of concentrations of oleic acid in a monadic exposure. The dose response tested 3 concentrations of oleic acid ranging from 0.01% oleic acid to 1% oleic acid. All products (including the blank, 0% oleic acid) contained 100 mM L-histidine as an ingestive/positive tastant to increase the baseline gel intake, enabling the identification of a potential negative impact of the oleic acid concentration.

cat GPR120 = experiment: Calcium-sensitive fluorescent dye (Fluo8) FLIPR assay, transiently transfected cells; type: cell-based; settings: in vitro assays with the feline receptors
Procedure: These constructs were then transiently transfected into the CHO K1 immortalised cell line, and other commonly used cell lines using Lipofectamine 2000 and testing was performed to establish the successful expression of the target protein. The testing was carried out using a calcium sensitive fluorescent dye (Fluo8). Transfected cells were seeded into 384 well assay plates. By loading the cells with the dye and then challenging the cells with an agonist for the receptor the response of the cells could be recorded on the FLIPR^TETRA instrument by measuring the increase in fluorescence associated with intra-cellular calcium release, thus confirming the functional expression of the receptor. Suitable experimental controls eliminate any possibility that the response of the cells is non-specific or that the fluorescence increase is due to factors other than the release of intracellular calcium by the cells.

[1] = 0.1% fatty acid in gel with 25 mM L-histidine
[2] = 0.6% fatty acid in gel with 25 mM L-histidine
[3] = dog panel Breed 1, 1% fatty acid (highest tested)

| Structure (SMILES) | intake compared to the blank (cats; [1]) | intake compared to the blank (cats; 0.2% (w/v) fatty acid in gel with 25 mM L-histidine) | intake compared to the blank (cats; 0.3% (w/v) fatty acid in gel with 25 mM L-histidine) | intake compared to the blank (cats; [2]) | response compared to the blank (dogs; [3]) | response compared to the blank (dogs; dog panel Breed 2, 0.1% fatty acid) | activation of feline receptors in vitro (cat GPR120) | intake compared to the blank (cats; any of the 5 concentrations tested, 0.05% to 1%, 25 mM L-histidine) | intake compared to the blank (cats; 1% fatty acid in gel with 25 mM L-histidine) | intake compared to the blank (cats; higher concentrations (above 0.1%, up to 1%), 25 mM L-histidine) | response compared to the blank (dogs; dog panel Breed 2, 3 concentrations tested, 0.01% to 1%) |
| --- | --- | --- | --- | --- | --- | --- | --- | --- | --- | --- | --- |
| CCCCCCCC/C=C\CCCCCCCC(=O)O [oleic acid] | significantly higher intake | significantly higher intake | significantly higher intake | significantly higher intake | significant positive/ingestive response | significant positive/ingestive response | positive activation | – | – | – | – |
| CCCCCCCCCCCCCCCC(=O)O [palmitic acid] | – | – | – | – | – | – | – | no significant difference | – | – | – |
| CCCCCCCCCCCC(=O)O [lauric acid] | highest intake overall | – | – | significantly aversive/negative | – | – | – | – | significantly aversive/negative | – | – |
| CCCCC/C=C\C/C=C\CCCCCCCC(=O)O [linoleic acid] | significantly higher intake | – | – | – | significant positive/ingestive response | – | positive activation | – | – | trend for the higher concentrations to become aversive/negative | smaller differences between the linoleic acid concentrations tested |
